The results in this text go back to patent US10537567B2, “Kinase inhibitors for treatment of disease” (BioAxone BioSciences, Inc., priority 2017, dated 2020).

The test addresses Abl (Homo sapiens, UniProt P00519). Put plainly: Second kinome screen. It counts as binding. An excerpt: In the kinome screen BA-2017 had fewer off-target hits (Table 1) than BA-1049. […] An interesting hit from the kinome screen was on Abl (Table 1), an oncogene that also regulates many cellular activities, including vascular leakage.

Chain of Abl (P00519 whole entry): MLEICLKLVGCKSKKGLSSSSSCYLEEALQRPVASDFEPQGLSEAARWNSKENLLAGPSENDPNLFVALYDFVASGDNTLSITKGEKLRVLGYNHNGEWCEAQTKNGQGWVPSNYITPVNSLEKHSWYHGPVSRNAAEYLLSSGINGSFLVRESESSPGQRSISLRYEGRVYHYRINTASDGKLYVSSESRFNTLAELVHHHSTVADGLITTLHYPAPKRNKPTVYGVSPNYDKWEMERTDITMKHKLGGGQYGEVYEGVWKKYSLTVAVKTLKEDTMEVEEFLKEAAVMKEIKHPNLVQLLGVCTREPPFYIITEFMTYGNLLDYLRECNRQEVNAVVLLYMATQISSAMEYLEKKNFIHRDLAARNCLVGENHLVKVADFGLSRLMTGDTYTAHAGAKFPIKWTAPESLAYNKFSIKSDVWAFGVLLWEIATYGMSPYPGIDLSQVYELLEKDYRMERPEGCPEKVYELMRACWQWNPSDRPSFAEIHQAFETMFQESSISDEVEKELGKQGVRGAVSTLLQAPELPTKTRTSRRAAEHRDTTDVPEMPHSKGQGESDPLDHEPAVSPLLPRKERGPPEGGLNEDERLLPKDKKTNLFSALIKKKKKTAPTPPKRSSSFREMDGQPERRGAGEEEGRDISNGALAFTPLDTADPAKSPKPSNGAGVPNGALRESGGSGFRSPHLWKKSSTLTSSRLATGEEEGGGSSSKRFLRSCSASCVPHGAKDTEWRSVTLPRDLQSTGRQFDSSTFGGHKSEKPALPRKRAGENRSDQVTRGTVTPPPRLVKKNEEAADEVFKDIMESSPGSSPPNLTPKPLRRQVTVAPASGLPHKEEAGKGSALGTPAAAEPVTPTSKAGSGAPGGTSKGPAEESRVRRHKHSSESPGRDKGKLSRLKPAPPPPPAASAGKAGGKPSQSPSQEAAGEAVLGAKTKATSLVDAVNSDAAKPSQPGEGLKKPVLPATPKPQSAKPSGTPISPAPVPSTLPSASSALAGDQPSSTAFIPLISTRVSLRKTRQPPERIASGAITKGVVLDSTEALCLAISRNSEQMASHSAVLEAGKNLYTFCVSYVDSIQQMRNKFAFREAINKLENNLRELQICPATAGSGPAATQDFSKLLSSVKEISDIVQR

Consider `C[C@H](N)C1CCN(S(=O)(=O)c2cccc3cnccc23)CC1` [BA-1076], for which the “Binding to Abl” value was “a second kinome screen did not confirm significant binding of BA-1076 to Abl”.
